Patent publication US5491135A (priority 1993, dated 1996)
“And” between values parts separate entries of the source, which are not always exact repeats. Equal entries are not always repeated. Where two headings read alike, the source gives them in different places.

What was measured:
[1] = tested on: HCMV strain AD 169; assay: Rabbit HCMV ascending dose efficacy and time course recovery (Example 7); details: for Vitreo-retinal score: sum of both eyes
[2] = tested on: HCMV strain AD169; assay type: cell-based
[3] = tested on: clinical HCMV isolate; assay type: cell-based
[4] = tested on: HCMV strain AD 169; assay: Rabbit HCMV efficacy and time course recovery (Example 6); details: for Chorioretinal score (C) / Vitreitis score (V): sham-inoculated S1-S5, dose as groups 1-5
[5] = day 6, PALA 50 or DHPG 10 mg/kg/d
[6] = day 7, PALA 75 mg/kg/d, with or without steroid
[7] = day 12, PALA 75 mg/kg/d, with or without steroid
[8] = day 12, PALA 50 or DHPG 10 mg/kg/d
[9] = day 3, PALA 50, DHPG 10 or both, mg/kg/d
[10] = day 4, PALA 50, DHPG 10 or both, mg/kg/d
[11] = day 5, PALA 50, DHPG 10 or both, mg/kg/d
[12] = day 6, PALA 50, DHPG 10 or both, mg/kg/d

O=C(O)C[C@H](NC(=O)CP(=O)(O)O)C(=O)O [PALA]
Vitreo-retinal score ([1]; day 6, PALA 100 mg/kg/d): 4.0 | Average HCMV titer [1, 5]: 10^2 pfu | HCMV Recovered, OD [1, 5]: + | HCMV Recovered, OS [1, 5]: + | HCMV Titer, OD [1, 5]: 10^2 pfu | HCMV recovery frequency [1, 5]: 4/4 | Optic neuritis score (ONH) [1, 5]: 1.0 and 0.5 | Vitreo-retinal score [1, 5]: 0.75 and 0.6 | Optic neuritis score (ONH) [1, 6]: 0 | Vitreo-retinal score [1, 6]: 5.0 | Optic neuritis score (ONH) ([1]; day 7, PALA 100 mg/kg/d): 2.5 and 4.0 | Vitreo-retinal score ([1]; day 7, PALA 100 mg/kg/d): 3.25 and 4.25 | Vitreo-retinal score ([1]; day 7, PALA 50 or DHPG 10 mg/kg/d): 0.4 | HCMV Recovered, OD [1, 7]: - | HCMV Recovered, OS [1, 7]: - | HCMV Recovered, OD ([1]; day 12, PALA 100 mg/kg/d): - | HCMV Recovered, OS ([1]; day 12, PALA 100 mg/kg/d): - | HCMV Recovered, OD [1, 8]: - | HCMV Recovered, OS [1, 8]: - | log reduction at 10 µg/mL ([2]; Human betaherpesvirus 5, AD169, Hs68, read-out: viral yield reduction): 2 to 3 | reduction of HCMV titer ([2]; PALA 3 μg/ml, DHPG 19 μg/ml): effective in reducing HCMV titers | Cell associated HCMV titer ([2]; day 0 PI): 10^2 PFU/ml | Cell free (supernatant) HCMV titer ([2]; day 0 PI): 10^5 PFU/ml | Cell associated HCMV titer ([2]; day 1 PI): 10^3 PFU/ml | Cell free (supernatant) HCMV titer ([2]; day 1 PI): 10^1 PFU/ml | Cell associated HCMV titer ([2]; day 2 PI): 10^1 PFU/ml | Cell free (supernatant) HCMV titer ([2]; day 2 PI): 10^1 PFU/ml | Cell associated HCMV titer ([2]; day 3 PI): 10^1 PFU/ml | Cell free (supernatant) HCMV titer ([2]; day 3 PI): 10^3 PFU/ml | Cell associated HCMV titer ([2]; day 4 PI): 10^1 PFU/ml | Cell free (supernatant) HCMV titer ([2]; day 4 PI): 10^2 PFU/ml | Cell associated HCMV titer ([2]; day 5 PI): 10^1 PFU/ml | Cell free (supernatant) HCMV titer ([2]; day 5 PI): 10^1 PFU/ml | Cell associated HCMV titer ([2]; day 6 PI): 10^1 PFU/ml | Cell associated HCMV titer ([2]; day 7 PI): 0 PFU/ml | reduction of HCMV titer [3]: effective in reducing the titer | log reduction at 10 µg/mL ([3]; Human betaherpesvirus 5, Hs68, read-out: viral yield reduction): 2 to 3 | Cell associated HCMV titer ([3]; day 0 PI): 10^2 PFU/ml | Cell free (supernatant) HCMV titer ([3]; day 0 PI): 10^5 PFU/ml | Cell associated HCMV titer ([3]; day 1 PI): 10^3 PFU/ml | Cell free (supernatant) HCMV titer ([3]; day 1 PI): 10^2 PFU/ml | Cell associated HCMV titer ([3]; day 2 PI): 10^2 PFU/ml | Cell free (supernatant) HCMV titer ([3]; day 2 PI): 10^1 PFU/ml | Cell associated HCMV titer ([3]; day 3 PI): 10^1 PFU/ml | Cell free (supernatant) HCMV titer ([3]; day 3 PI): 10^2 PFU/ml | Cell associated HCMV titer ([3]; day 4 PI): 10^1 PFU/ml | Cell free (supernatant) HCMV titer ([3]; day 4 PI): 10^1 PFU/ml | Cell associated HCMV titer ([3]; day 5 PI): 0 PFU/ml | Cell free (supernatant) HCMV titer ([3]; day 5 PI): 10^1 PFU/ml | Cell associated HCMV titer ([3]; day 6 PI): 10^1 PFU/ml | Cell associated HCMV titer ([3]; day 7 PI): 10^1 PFU/ml | HCMV recovery ([4]; PALA 50, DHPG 10 or both, mg/kg/day i.v.): better than recovery in placebo treated eyes | HCMV Recovered, OD [4, 9]: + | HCMV Recovered, OS [4, 9]: + | HCMV Titer, OD [4, 9]: 10^4 pfu | HCMV Titer, OS [4, 9]: 10^4 pfu | HCMV recovery frequency [4, 9]: 2/2 | Chorioretinal score (C) ([4]; day 3): 0 | Vitreitis score (V) ([4]; day 3): 0 | HCMV Recovered, OD [4, 10]: + | HCMV Recovered, OS [4, 10]: + | HCMV Titer, OD [4, 10]: 10^3 pfu | HCMV Titer, OS [4, 10]: 10^2 pfu | HCMV recovery frequency [4, 10]: 2/2 | Chorioretinal score (C) ([4]; day 4): 0 | Vitreitis score (V) ([4]; day 4): 0 | HCMV Titer, OD ([4]; day 5, PALA 50 mg/kg/d): 10^1 pfu | HCMV Titer, OS ([4]; day 5, PALA 50 mg/kg/d): 10^2 pfu | HCMV Recovered, OD [4, 11]: + | HCMV Recovered, OS [4, 11]: + | HCMV recovery frequency [4, 11]: 2/2 | Chorioretinal score (C) ([4]; day 5): 0 | Vitreitis score (V) ([4]; day 5): 0 | HCMV Titer, OS ([4]; day 6, PALA 50 mg/kg/d): 10^1 pfu | HCMV Recovered, OD [4, 12]: + | HCMV Recovered, OS [4, 12]: + | HCMV recovery frequency [4, 12]: 2/2 | HCMV Titer, OD [4, 5]: 10^1 pfu | Chorioretinal score (C) ([4]; day 6): 0 | Vitreitis score (V) ([4]; day 6): 0 | Chorioretinal score (C) ([4]; day 7): 0 | Vitreitis score (V) ([4]; day 7): 0 | Chorioretinal score (C) ([4]; day 10): 0 | Vitreitis score (V) ([4]; day 10): 0 | vitreitis / chorioretinal disease ([4]; sham-inoculated S1, PALA 50 mg/kg/day): did not develop any vitreitis nor chorioretinal disease
